Key:
Type in all cases: in vivo
[1] = test system: Diabrotica balteata (Corn Root Worm); experiment: Example B1: Activity against Diabrotica balteata (corn root worm), sprayed maize sprouts; details: 96 h, application rate 200 ppm, L2 larvae on sprayed maize sprouts, 4 days after infestation, read-out: effect in at least one of the two categories (mortality or growth inhibition)
Protocol: Example B1: Activity Against Diabrotica balteata (Corn Root Worm)
Maize sprouts placed onto an agar layer in 24-well microtiter plates were treated with aqueous test solutions prepared from 10′000 ppm DMSO stock solutions by spraying. After drying, the plates were infested with L2 larvae (6 to 10 per well). The samples were assessed for mortality and growth inhibition in comparison to untreated samples 4 days after infestation.

[2] = test system: Euschistus heros (Neotropical Brown Stink Bug); experiment: Example B2: Activity against Euschistus heros (neotropical brown stink bug), sprayed soybean leaves; details: 120 h, application rate 200 ppm, N2 nymphs on sprayed soybean leaves, 5 days after infestation, read-out: effect in at least one of the two categories (mortality or growth inhibition)
Protocol: Example B2: Activity Against Euschistus heros (Neotropical Brown Stink Bug)
Soybean leaves on agar in 24-well microtiter plates were sprayed with aqueous test solutions prepared from 10′000 ppm DMSO stock solutions. After drying the leaves were infested with N2 nymphs. The samples were assessed for mortality and growth inhibition in comparison to untreated samples 5 days after infestation.

[3] = test system: Plutella xylostella (Diamond Back Moth); experiment: Example B3: Activity against Plutella xylostella (diamond back moth), artificial diet; details: 192 h, application rate 200 ppm, eggs on artificial diet, 8 days after infestation, read-out: effect in at least one of the two categories (mortality or growth inhibition)
Protocol: Example B3: Activity Against Plutella xylostella (Diamond Back Moth)
24-well microtiter plates with artificial diet were treated with aqueous test solutions prepared from 10′000 ppm DMSO stock solutions by pipetting. After drying, Plutella eggs were pipetted through a plastic stencil onto a gel blotting paper and the plate was closed with it. The samples were assessed for mortality and growth inhibition in comparison to untreated samples 8 days after infestation. The following compounds gave an effect of at least 80% in at least one of the two categories (mortality or growth inhibition) at an application rate of 200 ppm: P2, P4, P5, P6, P8, P9, P10, P11, P12, P14, P15, P16, P17, P18, P19, P20, P21, P22, P23, P24, P25, P26, P27, P28, P29, P30, P31, P32, P33, P34, P35, P36, P38, P39, P40, P42, P45, P46, P47, P49, P50, P51, P52.

[4] = test system: Myzus persicae (Green Peach Aphid); experiment: whole plant or invertebrate; details: foliar, 144 h, application rate 200 ppm, sprayed sunflower leaf discs, mixed ages, 6 days after infestation
Protocol: Example B4: Activity Against Myzus persicae (Green Peach Aphid) Feeding/Contact Activity
Sunflower leaf discs were placed onto agar in a 24-well microtiter plate and sprayed with aqueous test solutions prepared from 10′000 ppm DMSO stock solutions. After drying, the leaf discs were infested with an aphid population of mixed ages. The samples were assessed for mortality 6 days after infestation.

[5] = test system: Spodoptera littoralis (Egyptian Cotton Leaf Worm); experiment: Example B6: Activity against Spodoptera littoralis (Egyptian cotton leaf worm); details: foliar, 72 h, application rate 200 ppm, L1 larvae on sprayed cotton leaf discs, 3 days after infestation, read-out: control (mortality, anti-feeding effect or growth inhibition)
Protocol: Example B6: Activity Against Spodoptera littoralis (Egyptian Cotton Leaf Worm)
Cotton leaf discs were placed onto agar in 24-well microtiter plates and sprayed with aqueous test solutions prepared from 10′000 ppm DMSO stock solutions. After drying the leaf discs were infested with five L1 larvae. The samples were assessed for mortality, anti-feeding effect, and growth inhibition in comparison to untreated samples 3 days after infestation. Control of Spodoptera littoralis by a test sample is given when at least one of the categories mortality, anti-feedant effect, and growth inhibition is higher than the untreated sample.

CCS(=O)(=O)c1cccnc1-c1cc2ccn(CC(F)(F)C(F)(F)F)c2cn1 [Compound P8, 5-(3-ethylsulfonyl-2-pyridyl)-1-(2,2,3,3,3-pentafluoropropyl) pyrrolo[2,3-c]pyridine]
≥ 80%: percent effect (mortality or growth inhibition) at 200 ppm [1] | percent effect (mortality or growth inhibition) at 200 ppm [2] | percent effect (mortality or growth inhibition) at 200 ppm [3] | mortality at 200 ppm [4] | percent control (mortality, anti-feedant effect or growth inhibition) at 200 ppm [5]

CCS(=O)(=O)c1cc(Oc2ccccn2)cnc1-c1cc2ccn(CC(F)(F)C(F)(F)F)c2cn1 [Compound P17, 5-[3-ethylsulfonyl-5-(2-pyridyloxy)-2-pyridyl]-1-(2,2,3,3,3-pentafluoropropyl) pyrrolo[2,3-c]pyridine]
≥ 80%: percent effect (mortality or growth inhibition) at 200 ppm [1] | percent effect (mortality or growth inhibition) at 200 ppm [2] | percent effect (mortality or growth inhibition) at 200 ppm [3] | mortality at 200 ppm [4] | percent control (mortality, anti-feedant effect or growth inhibition) at 200 ppm [5]

CC[S+]([O-])c1cccnc1-c1cc2ccn(CC(F)(F)C(F)(F)F)c2cn1 (centres unmarked) [Compound P7, 5-(3-ethylsulfinyl-2-pyridyl)-1-(2,2,3,3,3-pentafluoropropyl) pyrrolo[2,3-c]pyridine]
≥ 80%: percent effect (mortality or growth inhibition) at 200 ppm [1] | mortality at 200 ppm [4]

CCS(=O)(=O)c1ccc(-n2cncn2)nc1-c1cc2ncn(CC(F)(F)C(F)(F)F)c2cn1 [Compound P32, 6-[3-ethylsulfonyl-6-(1,2,4-triazol-1-yl)-2-pyridyl]-3-(2,2,3,3,3-pentafluoropropyl)imidazo[4,5-c]pyridine]
≥ 80%: percent effect (mortality or growth inhibition) at 200 ppm [1] | percent effect (mortality or growth inhibition) at 200 ppm [2] | percent effect (mortality or growth inhibition) at 200 ppm [3] | mortality at 200 ppm [4]

CCS(=O)(=O)c1ccc(-n2cncn2)nc1-c1cc2cnn(CC(F)(F)C(F)(F)F)c2cn1 [Compound P22, 5-[3-ethylsulfonyl-6-(1,2,4-triazol-1-yl)-2-pyridyl]-1-(2,2,3,3,3-pentafluoropropyl) pyrazolo[3,4-c] pyridine]
≥ 80%: percent effect (mortality or growth inhibition) at 200 ppm [1] | percent effect (mortality or growth inhibition) at 200 ppm [2] | percent effect (mortality or growth inhibition) at 200 ppm [3] | mortality at 200 ppm [4] | percent control (mortality, anti-feedant effect or growth inhibition) at 200 ppm [5]

CCS(=O)(=O)c1ccc(N(C)C(=O)NC)nc1-c1cc2cnn(CC(F)(F)C(F)(F)F)c2cn1 [Compound P33, 1-[5-ethylsulfonyl-6-[1-(2,2,3,3,3-pentafluoropropyl)pyrazolo[3,4-c]pyridin-5-yl]-2-pyridyl]-1,3-dimethyl-urea]
≥ 80%: percent effect (mortality or growth inhibition) at 200 ppm [1] | percent effect (mortality or growth inhibition) at 200 ppm [2] | percent effect (mortality or growth inhibition) at 200 ppm [3] | mortality at 200 ppm [4] | percent control (mortality, anti-feedant effect or growth inhibition) at 200 ppm [5]

CCS(=O)(=O)c1cc(Oc2ccccn2)cnc1-c1cc2cnn(CC(F)(F)C(F)(F)F)c2cn1 [Compound P21]
≥ 80%: percent effect (mortality or growth inhibition) at 200 ppm [1] | percent effect (mortality or growth inhibition) at 200 ppm [2] | percent effect (mortality or growth inhibition) at 200 ppm [3] | mortality at 200 ppm [4] | percent control (mortality, anti-feedant effect or growth inhibition) at 200 ppm [5]

CCS(=O)(=O)c1cc(-n2ccc(Cl)n2)cnc1-c1cc2cnn(CC(F)(F)C(F)(F)F)c2cn1 [Compound P46, 5-[5-(3-chloropyrazol-1-yl)-3-ethylsulfonyl-2-pyridyl]-1-(2,2,3,3,3-pentafluoropropyl) pyrazolo[3,4-c]pyridine]
≥ 80%: percent effect (mortality or growth inhibition) at 200 ppm [1] | percent effect (mortality or growth inhibition) at 200 ppm [2] | percent effect (mortality or growth inhibition) at 200 ppm [3] | mortality at 200 ppm [4] | percent control (mortality, anti-feedant effect or growth inhibition) at 200 ppm [5]

CCS(=O)(=O)c1ccc(NC)nc1-c1cc2ccn(CC(F)(F)C(F)(F)F)c2cn1 [Compound P24, 5-ethylsulfonyl-N-methyl-6-[1-(2,2,3,3,3-pentafluoropropyl)pyrrolo[2,3-c]pyridin-5-yl]pyridin-2-amine]
≥ 80%: percent effect (mortality or growth inhibition) at 200 ppm [1] | percent effect (mortality or growth inhibition) at 200 ppm [2] | percent effect (mortality or growth inhibition) at 200 ppm [3] | mortality at 200 ppm [4] | percent control (mortality, anti-feedant effect or growth inhibition) at 200 ppm [5]

CCS(=O)(=O)c1ccc(N(C)C(=O)C2CC2)nc1-c1cc2cnn(CC(F)(F)C(F)(F)F)c2cn1 [Compound P15, N-[5-ethylsulfonyl-6-[1-(2,2,3,3,3-pentafluoropropyl)pyrazolo[3,4-c]pyridin-5-yl]-2-pyridyl]-N-methyl-cyclopropane-carboxamide]
≥ 80%: percent effect (mortality or growth inhibition) at 200 ppm [1] | percent effect (mortality or growth inhibition) at 200 ppm [2] | percent effect (mortality or growth inhibition) at 200 ppm [3] | mortality at 200 ppm [4] | percent control (mortality, anti-feedant effect or growth inhibition) at 200 ppm [5]

CCSc1cc(Oc2ccccn2)cnc1-c1cc2cnn(CC(F)(F)C(F)(F)F)c2cn1 [Compound P20, 5-[3-ethylsulfanyl-5-(2-pyridyloxy)-2-pyridyl]-1-(2,2,3,3,3-pentafluoropropyl) pyrazolo [3,4-c]pyridine]
≥ 80%: percent effect (mortality or growth inhibition) at 200 ppm [1] | percent effect (mortality or growth inhibition) at 200 ppm [2] | percent effect (mortality or growth inhibition) at 200 ppm [3] | percent control (mortality, anti-feedant effect or growth inhibition) at 200 ppm [5]

CCS(=O)(=O)c1ccc(NC)nc1-c1cc2cnn(CC(F)(F)C(F)(F)F)c2cn1 [Compound P14, 5-ethylsulfonyl-N-methyl-6-[1-(2,2,3,3,3-pentafluoropropyl)pyrazolo[3,4-c]pyridin-5-yl]pyridin-2-amine]
≥ 80%: percent effect (mortality or growth inhibition) at 200 ppm [1] | percent effect (mortality or growth inhibition) at 200 ppm [2] | percent effect (mortality or growth inhibition) at 200 ppm [3] | mortality at 200 ppm [4] | percent control (mortality, anti-feedant effect or growth inhibition) at 200 ppm [5]

CCS(=O)(=O)c1ccc(N2CCOC2=O)nc1-c1cc2cnn(CC(F)(F)C(F)(F)F)c2cn1 [Compound P27, 3-[5-ethylsulfonyl-6-[1-(2,2,3,3,3-pentafluoropropyl)pyrazolo[3,4-c]pyridin-5-yl]-2-pyridyl]oxazolidin-2-one]
≥ 80%: percent effect (mortality or growth inhibition) at 200 ppm [3] | mortality at 200 ppm [4] | percent control (mortality, anti-feedant effect or growth inhibition) at 200 ppm [5]

CCS(=O)(=O)c1cc(C(C)(C)C#N)cnc1-c1cc2ccn(CC(F)(F)C(F)(F)F)c2cn1 [Compound P19, 2-[5-ethylsulfonyl-6-[1-(2,2,3,3,3-pentafluoropropyl)pyrrolo[2,3-c]pyridin-5-yl]-3-pyridyl]-2-methyl-propanenitrile]
≥ 80%: percent effect (mortality or growth inhibition) at 200 ppm [1] | percent effect (mortality or growth inhibition) at 200 ppm [2] | percent effect (mortality or growth inhibition) at 200 ppm [3] | percent control (mortality, anti-feedant effect or growth inhibition) at 200 ppm [5]

— patent publication US20220132852A1, “PESTICIDALLY ACTIVE HETEROCYCLIC DERIVATIVES WITH SULFUR CONTAINING SUBSTITUENTS” (SYNGENTA CROP PROTECTION AG, priority 2019, published 2022)
